Entries after “also recorded” stand apart in the source; their conditions may differ.
What was measured:
intubated rodents = test: Cerebral blood flow by cortical laser Doppler during intranasal nitric oxide in intubated rodents; format: in vivo
Procedure: (§1) In intubated rodents, the inventors have shown that cerebral blood flow increases by 100% within 60 minutes of intranasal nitric oxide delivery.

[1] = tested on: intubated rodents, carotid artery occlusion model; test: Carotid artery occlusion model, Speckle laser Doppler, intubated rodents; format: in vivo
Procedure: as §1
Increase in cerebral blood flow is attributable to focal intranasal or intra-oral effect of nitric oxide rather than to systemic absorption of the gas. […] The effect on cerebral blood flow during intranasal delivery of nitric oxide with concomitant air inhalation into the lungs is therefore a focal effect on intranasal and intracranial vasculature attributable specifically to nitric oxide. […] In a non-intubated patient, nitric oxide inhalation can be prevented by occluding the nasal cavity anterior or posterior to the site of gas delivery. This is achieved by means of an anterior occlusion device such a rigid member, an expandable member, a compressible member, a sponge, a porous member, a plug, a balloon, foam and/or combinations of the foregoing, which prevent inhalation through the nostrils while maintaining a high concentration of nitric oxide in the nasal cavity. A non-intubated patient may be allowed to inhale air into the lungs during nitric oxide delivery into the nasal cavity by an optional central lumen with the distal orifice beyond the sites of nasal gas delivery and occlusion device.

[2] = tested on: human with focal cerebral ischemia; test: CT perfusion scanning before and after intranasal nitric oxide in intubated patients with cerebral ischemia; format: in vivo
[3] = tested on: humans (normal volunteers); test: Tolerability of intranasal nitric oxide delivery in humans (normal volunteers); format: in vivo, human
From the text: While nitric oxide may be given intranasally and without inhalation into the lungs to intubated, comatose individuals the tolerability of intranasal nitric oxide in awake humans has not previously been investigated. The inventors have tested the effect of nitric oxide in humans (normal volunteers) during intranasal delivery. […] Therefore it can easily be tolerated by awake, non-intubated patients.

[4] = Post Rx, one hour of intranasal non-inhaled nitric oxide

## [N]=O [nitric oxide]
Intubated rodents; cortical laser Doppler, during intranasal administration
  cerebral blood flow (FIG. 8): doubling
Intubated rodents; within 60 minutes of intranasal delivery, non-inhaled
  cerebral blood flow increase: 100%
[1]; Speckle laser Doppler tracing, intubated rodents
  cerebral ischemia (FIG. 9): reduction
[1]; during the carotid occlusion and following ligature release
  perfusion in the ischemic hemisphere: improved
[2]; Post Rx
  Cerebral Blood Flow, Changes in ACA Watershed: Normalization,
  Mean Transit Time, Changes in ACA Watershed: Normalization
[2]; Post Rx versus Pre Rx, ischemic left hemisphere
  increase in perfusion on L (ACA Watershed): 67% increase in
[2]; [4]
  Cerebral Blood Flow, Left Hemisphere (ischemic): 52
  Cerebral Blood Flow, Right Hemisphere (normal): 45
  Mean Transit Time, Left Hemisphere (ischemic): 6.0 s
  Mean Transit Time, Right Hemisphere (normal): 6.1 s
[2]; before and after treatment, human with focal cerebral ischemia
  cerebral perfusion on CT perfusion scan: improvement; also recorded: augmentation of cerebral perfusion and normalization of regional perfusion abnormalities
[3]; concentrations up to 100 PPM, normal volunteers
  sensation during intranasal delivery: does not elicit any sensation
[3]; high concentration, delivered intra-nasally and without inhalation
  tolerability of gas treatment: tolerated

Reference: patent publication US20130273180A1, “SYSTEM AND METHOD FOR IMPROVING OUTCOME OF CEREBRAL ISCHEMIA” (priority 2012, published 2013)
